In patent US7618961B2, “Inhibitors of 11-beta-hydroxy steroid dehydrogenase type 1” (Biovitrum AB, priority 2000, dated 2009):

Target: T1, human 11-β-hydroxysteroid dehydrogenase type-1 enzyme (11-β-HSD1) (Homo sapiens, UniProt P28845)
T1 construct: made in house; host or cells: Pichia pastoris
T1 sequence (P28845 whole entry): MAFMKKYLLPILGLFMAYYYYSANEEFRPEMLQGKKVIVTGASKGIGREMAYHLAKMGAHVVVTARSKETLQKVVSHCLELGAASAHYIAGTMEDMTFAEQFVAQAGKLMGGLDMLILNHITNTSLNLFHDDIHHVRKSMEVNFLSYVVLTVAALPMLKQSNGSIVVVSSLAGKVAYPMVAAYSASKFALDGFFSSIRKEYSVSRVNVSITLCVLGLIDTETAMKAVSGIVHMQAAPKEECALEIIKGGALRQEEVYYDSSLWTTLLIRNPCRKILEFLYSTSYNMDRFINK
Test: Scintillation proximity assay: human 11-β-HSD1 enzyme assay
Type: biochemical
Details: Ki calculated from IC50 (Cheng Prushoff)
Excerpt: [1, 2(n)-^3H]-cortisone was purchased from Amersham Pharmacia Biotech. Anti-cortisol monoclonal mouse antibody, clone 6D6.7 was obtained from Immunotech and Scintillation proximity assay (SPA) beads coated with monoclonal antimouse antibodies were from Amersham Pharmacia Biotech. NADPH, tetrasodium salt was from Calbiochem and glucose-6-phosphate (G-6-P) was supplied by Sigma. The human 11-β-hydroxysteroid dehydrogenase type-1 enzyme (11-β-HSD1) was expressed in Pichia pastoris. 18-β-glycyrrhetinic acid (GA) was obtained from Sigma. The serial dilutions of the compounds were performed on a Tecan Genesis RSP 150.
Compounds to be tested were dissolved in DMSO (1 mM) and diluted in 50 mM Tris-HCl, pH 7.2 containing 1 mM EDTA.
The multiplication of plates was done on a WallacQuadra. The amount of the product [^3H]-cortisol, bound to the beads was determined in a Packard, Top Count microplate liquid scintillation counter.
The 11-β-HSD1 enzyme assay was carried out in 96 well microtiter plates (Packard, Optiplate) in a total well volume of 220 μL and contained 30 mM Tris-HCl, pH 7.2 with 1 mM EDTA, a substrate mixture tritiated Cortisone/NADPH (175 nM/181 μM), G-6-P (1 mM) and inhibitors in serial dilutions (9 to 0.15 μM). Reactions were initiated by the addition of human 11-β-HSD1, either as Pichia pastoris cell homogenate or microsomes prepared from Pichia pastoris (the final amount of enzyme used was varied between 0.057 to 0.11 mg/mL). Following mixing, the plates were shaken for 30 to 45 minutes at room temperature. The reactions were terminated with 10 μL 1 mM GA stop solution. Monoclonal mouse antibody was then added (10 μL of 4 μM) followed by 100 μL of SPA beads (suspended according to the manufacturers instructions). Appropriate controls were set up by omitting the 11-β-HSD1 to obtain the non-specific binding (NSB) value.
The plates were covered with plastic film and incubated on a shaker for 30 minutes, at room temperature, before counting. The amount of [^3H]-cortisol, bound to the beads was determined in a microplate liquid scintillation counter.
The calculation of the Ki values for the inhibitors was performed by use of Activity Base. The Ki value is calculated from IC50 and the Km value is calculated using the Cheng Prushoff equation (with reversible inhibition that follows the Michaelis-Menten equation): […] [Cheng, Y. C.; Prushoff, W. H. Biochem. Pharmacol. 1973, 22, 3099-3108]. The IC50 is measured experimentally in an assay wherein the decrease of the turnover of cortisone to cortisol is dependent on the inhibition potential of each substance. The Ki values of the compounds of the present invention for the 11-β-HSD1 enzyme lie typically between about 10 nM and about 10 μM. Illustrative of the invention, the following Ki values have been determined in the human 11-β-HSD1 enzyme assay (see Table 1): […]
In the case of `CCOC(=O)Cc1csc(NS(=O)(=O)c2cc(C)c(Cl)cc2Cl)n1` [Example 1A, Ethyl (2-{[(2,4-dichloro-5-methylphenyl)sulfonyl]amino}-1,3-thiazol-4-yl)acetate], the Ki is reported as 32 nM.
In the case of `O=C(Cc1csc(NS(=O)(=O)c2c(Cl)cc(Cl)cc2Cl)n1)N1CCOCC1` [Example 149A, 2,4,6-Trichloro-N-{4-[2-(4-morpholinyl)-2-oxoethyl]-1,3-thiazol-2-yl}benzenesulfonamide], the Ki is reported as 51 nM.
Molecule `O=C(Cc1csc(NS(=O)(=O)c2ccc(-c3ccccc3)cc2)n1)N1CCOCC1` [Example 151A, N-{4-[2-(4-morpholinyl)-2-oxoethyl]-1,3-thiazol-2-yl}[1,1′-biphenyl]-4-sulfonamide] has a Ki of 21 nM.
For `CCCC(=O)Cc1csc(NS(=O)(=O)c2cccc(Cl)c2C)n1` [Example 179A, 3-Chloro-2-methyl-N-[4-(2-oxopentyl)-1,3-thiazol-2-yl]benzenesulfonamide], the Ki was 14 nM.
Work on `Cc1c(Cl)cccc1S(=O)(=O)Nc1nc(CCO)cs1` [Example 181A, 3-Chloro-N-[4-(2-hydroxyethyl)-1,3-thiazol-2-yl]-2-methylbenzenesulfonamide] yielded a Ki of 53 nM.
`Cc1c(Cl)cccc1S(=O)(=O)Nc1nc(CCOc2cccnc2)cs1` [Example 189A, 3-Chloro-2-methyl-N-{4-[2-(3-pyridinyloxy)ethyl]-1,3-thiazol-2-yl}benzenesulfonamide] gave a Ki of 299 nM.
`Cc1c(Cl)cccc1S(=O)(=O)Nc1nc(CCN2CCOCC2)cs1.Cl` [Example 204A, 3-Chloro-2-methyl-N-{4-[2-(4-morpholinyl)ethyl]-1,3thiazol-2-yl}benzenesulfonamide hydrochloride] showed a Ki of 91 nM.

System: not given
Test: not given
Details: not given
Molecule `Cc1c(Cl)cccc1S(=O)(=O)Nc1nc(CCN2CCOCC2)cs1.Cl` [Example 204A, 3-Chloro-2-methyl-N-{4-[2-(4-morpholinyl)ethyl]-1,3thiazol-2-yl}benzenesulfonamide hydrochloride] has a melting point of 197 to 198 °C.
